How the values were obtained:
[1] = target: T1, 20S Human Erythrocyte Proteasome (HEP) (Homo sapiens, UniProt P20618+P28074); experiment: Chymotrypsin-like activity of 20S Human Erythrocyte Proteasome (HEP), IC50 determination; format: biochemical; details: assay of Example C, inhibition of HEP
T1 construct: 20S Human Erythrocyte Proteasome (HEP), purchased from Immatics Biotechnologies Inc; purchased Immatics Biotechnologies Inc., Tübingen, Germany; host or cells: human erythrocytes (natural source)
Procedure, shortened: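 20S proteasome at 0.2 μg/mL (about 0.6 nM catalytic sites) in 20 mM Tris with 0.04% SDS, preincubated 15 min at 37° C with inhibitor before Suc-LLVY-AMC (100 μM final). AMC fluorescence read in the linear range; triplicates, IC50 from concentration series.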

[2] = target: T2, proteasome in Molt-4 cells (human leukemia) (Homo sapiens, UniProt P20618+P28074); format: cell-based; details: assay of Example E, inhibition of MOLT4; read-out: MOLT4 (EC50)
T2 sequence (P28074 60-263): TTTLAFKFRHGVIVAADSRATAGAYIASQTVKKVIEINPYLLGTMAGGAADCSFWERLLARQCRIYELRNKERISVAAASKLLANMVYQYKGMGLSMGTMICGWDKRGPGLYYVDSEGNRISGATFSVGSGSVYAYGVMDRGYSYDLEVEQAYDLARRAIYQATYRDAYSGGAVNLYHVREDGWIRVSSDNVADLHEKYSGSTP
T2 sequence (P20618 29-241): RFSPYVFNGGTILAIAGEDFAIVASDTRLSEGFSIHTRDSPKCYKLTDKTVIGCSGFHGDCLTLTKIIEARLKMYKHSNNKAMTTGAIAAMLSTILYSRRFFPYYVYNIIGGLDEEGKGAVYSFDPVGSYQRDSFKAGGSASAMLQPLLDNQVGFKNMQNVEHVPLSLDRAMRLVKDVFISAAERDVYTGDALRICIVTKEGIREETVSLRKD
Procedure, shortened: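 Intact Molt-4 cells (6×10^6 cells/mL) in HEPES-buffered saline were preincubated with inhibitor 15 min at 37 °C, then given cell-permeable MeOSuc-FLF-AFC at 25 μM final.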

SMILES	IC50 [1] [nM]	EC50 [2] [nM]
CC(C)=CCC[C@@H](C)CC(=O)N[C@@H](CCCNC(=N)N[N+](=O)[O-])C(=O)N[C@@H](CC(C)C)B1O[C@@H]2C[C@@H]3C[C@@H](C3(C)C)[C@]2(C)O1 [D.3.75, (3R)-3,7-Dimethyl-oct-6-enoic acid amide,N-[(1S)-1-[[[(1R)-1-[(3aS,4S,6S,7aR)-hexahydro-3a,5,5-trimethyl-4,6-methano-1,3,2-benzodioxaborol-2-yl]-3-methylbutyl]amino]carbonyl]-4-[[imino(nitroamino)methyl]amino]butyl]]	< 10	< 200
CCOc1ccc(C(=O)N[C@@H](CCCNC(=N)N[N+](=O)[O-])C(=O)N[C@@H](CC(C)C)B2O[C@@H]3C[C@@H]4C[C@@H](C4(C)C)[C@]3(C)O2)cc1 [D.3.91]	< 10	< 200
CC(C)C[C@H](NC(=O)[C@H](CCCNC(=N)N[N+](=O)[O-])NC(=O)/C=C/c1ccc(Br)cc1)B1O[C@@H]2C[C@@H]3C[C@@H](C3(C)C)[C@]2(C)O1 [D.3.92, (E)-3-(4-Bromophenyl)acrylamide,N-[(1S)-1-[[[(1R)-1-[(3aS,4S,6S,7aR)-hexahydro-3a,5,5-trimethyl-4,6-methano-1,3,2-benzodioxaborol-2-yl]-3-methylbutyl]amino]carbonyl]-4-[[imino(nitroamino)methyl]amino]butyl]]	< 10	< 200
COc1ccc2cc([C@H](C)C(=O)N[C@@H](CCCNC(=N)N[N+](=O)[O-])C(=O)N[C@@H](CC(C)C)B3O[C@@H]4C[C@@H]5C[C@@H](C5(C)C)[C@]4(C)O3)ccc2c1 [D.3.93, (2S)-2-(6-Methoxynaphthalen-2-yl)-propanamide,N-[(1S)-1-[[[(1R)-1-[(3aS,4S,6S,7aR)-hexahydro-3a,5,5-trimethyl-4,6-methano-1,3,2-benzodioxaborol-2-yl]-3-methylbutyl]amino]carbonyl]-4-[[imino(nitroamino)methyl]amino]butyl]]	< 10	< 200
COc1ccc(C(=O)N[C@@H](CCCNC(=N)N[N+](=O)[O-])C(=O)N[C@@H](CC(C)C)B2O[C@@H]3C[C@@H]4C[C@@H](C4(C)C)[C@]3(C)O2)cc1F [D.3.94, 3-Fluoro-4-methoxybenzamide,N-[(1S)-1-[[[(1R)-1-[(3aS,4S,6S,7aR)-hexahydro-3a,5,5-trimethyl-4,6-methano-1,3,2-benzodioxaborol-2-yl]-3-methylbutyl]amino]carbonyl]-4-[[imino(nitroamino)methyl]amino]butyl]]	< 10	< 200
CCCCCC/C=C/C(=O)N[C@@H](CCCNC(=N)N[N+](=O)[O-])C(=O)N[C@@H](CC(C)C)B1O[C@@H]2C[C@@H]3C[C@@H](C3(C)C)[C@]2(C)O1 [D.3.96, Non-2-enoic acid amide,N-[(1S)-1-[[[(1R)-1-[(3aS,4S,6S,7aR)-hexahydro-3a,5,5-trimethyl-4,6-methano-1,3,2-benzodioxaborol-2-yl]-3-methylbutyl]amino]carbonyl]-4-[[imino(nitroamino)methyl]amino]butyl]]	< 10	< 200
CC(C)C[C@H](NC(=O)[C@H](CCCNC(=N)N[N+](=O)[O-])NC(=O)/C=C/c1ccc2ccccc2c1)B1O[C@@H]2C[C@@H]3C[C@@H](C3(C)C)[C@]2(C)O1 [D.3.97, (E)-3-(Naphthalen-2-yl)acrylamide,N-[(1S)-1-[[[(1R)-1-[(3aS,4S,6S,7aR)-hexahydro-3a,5,5-trimethyl-4,6-methano-1,3,2-benzodioxaborol-2-yl]-3-methylbutyl]amino]carbonyl]-4-[[imino(nitroamino)methyl]amino]butyl]]	< 10	< 200
CCCCCCCCCCCCCC(=O)N[C@@H](CCCNC(=N)N[N+](=O)[O-])C(=O)N[C@@H](CC(C)C)B1O[C@@H]2C[C@@H]3C[C@@H](C3(C)C)[C@]2(C)O1 [D.3.102, Tetradecanamide,N-[(1S)-1-[[[(1R)-1-[(3aS,4S,6S,7aR)-hexahydro-3a,5,5-trimethyl-4,6-methano-1,3,2-benzodioxaborol-2-yl]-3-methylbutyl]amino]carbonyl]-4-[[imino(nitroamino)methyl]amino]butyl]]	< 10	200 to 2000
CC(C)C[C@H](NC(=O)[C@H](CCCNC(=N)N[N+](=O)[O-])NC(=O)CCc1c[nH]c2ccccc12)B1O[C@@H]2C[C@@H]3C[C@@H](C3(C)C)[C@]2(C)O1 [D.3.103, 3-(1H-Indol-3-yl)-propanamide,N-[(1S)-1-[[[(1R)-1-[(3aS,4S,6S,7aR)-hexahydro-3a,5,5-trimethyl-4,6-methano-1,3,2-benzodioxaborol-2-yl]-3-methylbutyl]amino]carbonyl]-4-[[imino(nitroamino)methyl]amino]butyl]]	< 10	200 to 2000
CC(C)C[C@H](NC(=O)[C@H](CCCNC(=N)N[N+](=O)[O-])NC(=O)CCCOc1ccccc1)B1O[C@@H]2C[C@@H]3C[C@@H](C3(C)C)[C@]2(C)O1 [D.3.104]	< 10	200 to 2000
CC(C)C[C@H](NC(=O)[C@H](CCCNC(=N)N[N+](=O)[O-])NC(=O)CCCC(=O)c1ccccc1)B1O[C@@H]2C[C@@H]3C[C@@H](C3(C)C)[C@]2(C)O1 [D.3.105, 5-Oxo-5-phenyl-pentanamide,N-[(1S)-1-[[[(1R)-1-[(3aS,4S,6S,7aR)-hexahydro-3a,5,5-trimethyl-4,6-methano-l,3,2-benzodioxaborol-2-yl]-3-methylbutyl]amino]carbonyl]-4-[[imino(nitroamino)methyl]amino]butyl]]	< 10	200 to 2000
CC(C)C[C@H](NC(=O)[C@H](CCCNC(=N)N[N+](=O)[O-])NC(=O)CCCCCCCc1ccccc1)B1O[C@@H]2C[C@@H]3C[C@@H](C3(C)C)[C@]2(C)O1 [D.3.117, 8-Phenyl-octanamide,N-[(1S)-1-[[[(1R)-1-[(3aS,4S,6S,7aR)-hexahydro-3a,5,5-trimethyl-4,6-methano-1,3,2-benzodioxaborol-2-yl]-3-methylbutyl]amino]carbonyl]-4-[[imino(nitroamino)methyl]amino]butyl]]	< 10	< 200
CCCCCCCCCCCCC(=O)N[C@@H](CCCNC(=N)N[N+](=O)[O-])C(=O)N[C@@H](CC(C)C)B1O[C@@H]2C[C@@H]3C[C@@H](C3(C)C)[C@]2(C)O1 [D.3.119, Tridecanamide,N-[(1S)-1-[[[(1R)-1-[(3aS,4S,6S,7aR)-hexahydro-3a,5,5-trimethyl-4,6-methano-1,3,2-benzodioxaborol-2-yl]-3-methylbutyl]amino]carbonyl]-4-[[imino(nitroamino)methyl]amino]butyl]]	< 10	< 200
CC(C)C[C@H](NC(=O)[C@H](CCCNC(=N)N[N+](=O)[O-])NC(=O)CCCNC(=O)OCC1c2ccccc2-c2ccccc21)B1O[C@@H]2C[C@@H]3C[C@@H](C3(C)C)[C@]2(C)O1 [D.3.122, [[[(9H-fluoren-9-yl)methoxy]carbonyl]amino]butanamide, N-[(1S)-1-[[[(1R)-1-[(3aS,4S,6S,7aR)-hexahydro-3a,5,5-trimethyl-4,6-methano-1,3,2-benzodioxaborol-2-yl]-3-methylbutyl]amino]carbonyl]-4-[[imino(nitroamino)methyl]amino]butyl]]	< 10	< 200
CC(C)C[C@H](NC(=O)[C@H](CCCNC(=N)N[N+](=O)[O-])NC(=O)CCCCc1ccc(F)cc1)B1O[C@@H]2C[C@@H]3C[C@@H](C3(C)C)[C@]2(C)O1 [D.3.124, 5-(4-Fluorophenyl)-pentanamide,N-[(1S)-1-[[[(1R)-1-[(3aS,4S,6S,7aR)-hexahydro-3a,5,5-trimethyl-4,6-methano-1,3,2-benzodioxaborol-2-yl]-3-methylbutyl]amino]carbonyl]-4-[[imino(nitroamino)methyl]amino]butyl]]	< 10	< 200
CC(C)C[C@H](NC(=O)[C@H](CCCNC(=N)N[N+](=O)[O-])NC(=O)CCCCCCC(=O)c1ccccc1)B1O[C@@H]2C[C@@H]3C[C@@H](C3(C)C)[C@]2(C)O1 [D.3.125, 8-Oxo-8-phenyloctanamide,N-[(1S)-1-[[[(1R)-1-[(3aS,4S,6S,7aR)-hexahydro-3a,5,5-trimethyl-4,6-methano-l,3,2-benzodioxaborol-2-yl]-3-methylbutyl]amino]carbonyl]-4-[[imino(nitroamino)methyl]amino]butyl]]	< 10	< 200
CC(C)C[C@H](NC(=O)[C@H](CCCNC(=N)N[N+](=O)[O-])NC(=O)CCCc1cccs1)B1O[C@@H]2C[C@@H]3C[C@@H](C3(C)C)[C@]2(C)O1 [D.3.126, 4-(Thiophen-2-yl)butanamide,N-[(1S)-1-[[[(1R)-1-[(3aS,4S,6S,7aR)-hexahydro-3a,5,5-trimethyl-4,6-methano-1,3,2-benzodioxaborol-2-yl]-3-methylbutyl]amino]carbonyl]-4-[[imino(nitroamino)methyl]amino]butyl]]	< 10	< 200

Source: patent US8546608B2, “Proteasome inhibitors and methods of using the same” (Cephalon, Inc., priority 2003, dated 2013)
